Assay results published in ChEMBL document CHEMBL3792297, “Studies on phenothiazines: New microtubule-interacting compounds with phenothiazine A-ring as potent antineoplastic agents” (Bioorg Med Chem, 2016).

Legend:
Assay type in all cases: functional
[1] = system: NCI-H460; test: Growth inhibition of human NCI-H460 cells after 48 hrs by SRB assay; settings: NCI-H460, 48 h
[2] = Growth inhibition of human BT549 cells at 10 uM after 48 hrs by SRB assay relative to control; settings: BT-549, 48 h, read-out: GI
[3] = Growth inhibition of human SNB75 cells at 10 uM after 48 hrs by SRB assay relative to control; settings: SNB-75, 48 h, read-out: GI
[4] = Growth inhibition of human OVCAR8 cells after 48 hrs by SRB assay; settings: OVCAR-8, 48 h
[5] = system: MDA-MB-468; test: Growth inhibition of human MDA-MB-468 cells after 48 hrs by SRB assay; settings: MDA-MB-468, 48 h
[6] = Growth inhibition of human SF268 cells at 10 uM after 48 hrs by SRB assay relative to control; settings: SF-268, 48 h, read-out: GI
[7] = system: MCF7; test: Growth inhibition of human MCF7 cells after 48 hrs by SRB assay; settings: MCF7, 48 h
[8] = Growth inhibition of human Caki1 cells after 48 hrs by SRB assay; settings: CAKI-1, 48 h
[9] = Growth inhibition of human PC3 cells at 10 uM after 48 hrs by SRB assay relative to control; settings: PC-3, 48 h, read-out: GI
[10] = Growth inhibition of human OVCAR4 cells at 10 uM after 48 hrs by SRB assay relative to control; settings: OVCAR-4, 48 h, read-out: GI
[11] = system: SK-MEL-28; test: Growth inhibition of human SK-MEL-28 cells after 48 hrs by SRB assay; settings: SK-MEL-28, 48 h
[12] = system: CCRF-CEM; test: Growth inhibition of human CCRF-CEM cells at 10 uM after 48 hrs by SRB assay relative to control; settings: read-out: GI
[13] = system: NCI-H23; test: Growth inhibition of human NCI-H23 cells at 10 uM after 48 hrs by SRB assay relative to control; settings: NCI-H23, 48 h, read-out: GI
[14] = Growth inhibition of human OVCAR3 cells at 10 uM after 48 hrs by SRB assay relative to control; settings: OVCAR-3, 48 h, read-out: GI
[15] = system: MDA-MB-435; test: Growth inhibition of human MDA-MB-435 cells after 48 hrs by SRB assay; settings: MDA-MB-435, 48 h
[16] = Growth inhibition of human SKOV3 cells at 10 uM after 48 hrs by SRB assay relative to control; settings: SK-OV-3, 48 h, read-out: GI
[17] = system: SR; test: Growth inhibition of human SR cells after 48 hrs by SRB assay
[18] = system: M14; test: Growth inhibition of human M14 cells after 48 hrs by SRB assay; settings: M14, 48 h
[19] = system: NCI-H226; test: Growth inhibition of human NCI-H226 cells at 10 uM after 48 hrs by SRB assay relative to control; settings: NCI-H226, 48 h, read-out: GI
[20] = Growth inhibition of human UACC62 cells at 10 uM after 48 hrs by SRB assay relative to control; settings: UACC-62, 48 h, read-out: GI
[21] = system: HT-29; test: Growth inhibition of human HT-29 cells after 48 hrs by SRB assay; settings: HT-29, 48 h
[22] = system: SR; test: Growth inhibition of human SR cells at 10 uM after 48 hrs by SRB assay relative to control; settings: read-out: GI
[23] = Growth inhibition of human NCI-ADR-RES cells at 10 uM after 48 hrs by SRB assay relative to control; settings: read-out: GI
[24] = Growth inhibition of human OVCAR3 cells after 48 hrs by SRB assay; settings: OVCAR-3, 48 h
[25] = Growth inhibition of human MOLT4 cells after 48 hrs by SRB assay; settings: MOLT-4, 48 h
[26] = Growth inhibition of human OVCAR8 cells at 10 uM after 48 hrs by SRB assay relative to control; settings: OVCAR-8, 48 h, read-out: GI
[27] = Growth inhibition of human Hs 578T cells after 48 hrs by SRB assay
[28] = Growth inhibition of human MOLT4 cells at 10 uM after 48 hrs by SRB assay relative to control; settings: MOLT-4, 48 h, read-out: GI
[29] = Growth inhibition of human SF295 cells at 10 uM after 48 hrs by SRB assay relative to control; settings: SF-295, 48 h, read-out: GI
[30] = Growth inhibition of human SF295 cells after 48 hrs by SRB assay; settings: SF-295, 48 h
[31] = system: KM12; test: Growth inhibition of human KM12 cells at 10 uM after 48 hrs by SRB assay relative to control; settings: KM12, 48 h, read-out: GI
[32] = system: KM12; test: Growth inhibition of human KM12 cells after 48 hrs by SRB assay; settings: KM12, 48 h
[33] = Growth inhibition of human HCT15 cells at 10 uM after 48 hrs by SRB assay relative to control; settings: HCT-15, 48 h, read-out: GI
[34] = system: SK-MEL-5; test: Growth inhibition of human SK-MEL-5 cells after 48 hrs by SRB assay; settings: SK-MEL-5, 48 h
[35] = Growth inhibition of human SF539 cells at 10 uM after 48 hrs by SRB assay relative to control; settings: SF-539, 48 h, read-out: GI
[36] = system: A498; test: Growth inhibition of human A498 cells after 48 hrs by SRB assay; settings: A498, 48 h
[37] = system: EKVX; test: Growth inhibition of human EKVX cells at 10 uM after 48 hrs by SRB assay relative to control; settings: read-out: GI
[38] = Growth inhibition of human HCT116 cells after 48 hrs by SRB assay; settings: HCT-116, 48 h
[39] = Growth inhibition of human Hs 578T cells at 10 uM after 48 hrs by SRB assay relative to control; settings: read-out: GI
[40] = Growth inhibition of human BT549 cells after 48 hrs by SRB assay; settings: BT-549, 48 h
[41] = Growth inhibition of human COLO205 cells after 48 hrs by SRB assay; settings: COLO 205, 48 h
[42] = Growth inhibition of human IGROV1 cells after 48 hrs by SRB assay; settings: IGROV-1, 48 h
[43] = system: SK-MEL-2; test: Growth inhibition of human SK-MEL-2 cells after 48 hrs by SRB assay; settings: SK-MEL-2, 48 h
[44] = system: SK-MEL-5; test: Growth inhibition of human SK-MEL-5 cells at 10 uM after 48 hrs by SRB assay relative to control; settings: SK-MEL-5, 48 h, read-out: GI
[45] = Growth inhibition of human HCT15 cells after 48 hrs by SRB assay; settings: HCT-15, 48 h
[46] = Growth inhibition of human RXF393 cells after 48 hrs by SRB assay; settings: RXF 393, 48 h

Q: What does the source list for COc1ccc(C(=O)N2c3ccccc3Sc3ccccc32)c(OC)c1?
A: GI50 [1]: 0.406 µM; inhibition of growth at 10 µM [2]: 83%; inhibition of growth at 10 µM [3]: 82%; GI50 [4]: 0.749 µM; GI50 [5]: 0.327 µM; inhibition of growth at 10 µM [6]: 63%; GI50 [7]: 0.45 µM; GI50 [8]: 0.574 µM; inhibition of growth at 10 µM [9]: 89%; inhibition of growth at 10 µM [10]: 43%; GI50 [11]: 0.942 µM; inhibition of growth at 10 µM [12]: 83%; inhibition of growth at 10 µM [13]: 62%; inhibition of growth at 10 µM [14]: 100%; GI50 [15]: 0.212 µM; inhibition of growth at 10 µM [16]: 63%; GI50 [17]: 0.562 µM; GI50 [18]: 0.359 µM; inhibition of growth at 10 µM [19]: 69%; inhibition of growth at 10 µM [20]: 86%; GI50 [21]: 0.385 µM; inhibition of growth at 10 µM [22]: 78%; inhibition of growth at 10 µM [23]: 100%; GI50 [24]: 0.322 µM; GI50 [25]: 0.447 µM; inhibition of growth at 10 µM [26]: 72%; GI50 [27]: 0.482 µM; inhibition of growth at 10 µM [28]: 88%; inhibition of growth at 10 µM [29]: 88%; GI50 [30]: 0.484 µM; inhibition of growth at 10 µM [31]: 86%; GI50 [32]: 0.438 µM; inhibition of growth at 10 µM [33]: 81%; GI50 [34]: 0.408 µM; inhibition of growth at 10 µM [35]: 100%; GI50 [36]: 0.307 µM; inhibition of growth at 10 µM [37]: 66%; GI50 [38]: 0.452 µM; inhibition of growth at 10 µM [39]: 85%; GI50 [40]: 0.659 µM; GI50 [41]: 0.333 µM; GI50 [42]: 0.926 µM; GI50 [43]: 0.585 µM; inhibition of growth at 10 µM [44]: 81%; GI50 [45]: 0.464 µM; GI50 [46]: 0.413 µM

Q: Which GI50 [1] does the source give for COc1ccc(C(=O)N2c3ccccc3Sc3ccccc32)c(F)c1 here?
A: The GI50 was 0.485 µM.

Q: What about the inhibition of growth at 10 µM [2] of the same molecule?
A: Its inhibition of growth at 10 µM is 77%.

Q: And the inhibition of growth at 10 µM [3]?
A: The inhibition of growth at 10 µM was 100%.

Q: And the GI50 [4]?
A: Its GI50 is 2.2 µM.

Q: What about the GI50 [5] of the same molecule?
A: Its GI50 is 0.413 µM.

Q: And the inhibition of growth at 10 µM [6]?
A: The inhibition of growth at 10 µM was 47%.

Q: What about the GI50 [7] of the same molecule?
A: Its GI50 is 0.405 µM.

Q: And the GI50 [8]?
A: Its GI50 is 0.584 µM.

Q: What about the inhibition of growth at 10 µM [9] of the same molecule?
A: Its inhibition of growth at 10 µM is 70%.

Q: What about the inhibition of growth at 10 µM [10] of the same molecule?
A: Its inhibition of growth at 10 µM is 51%.

Q: And the GI50 [11]?
A: Its GI50 is 1.64 µM.

Q: And the inhibition of growth at 10 µM [12]?
A: Its inhibition of growth at 10 µM is 83%.

Q: And the inhibition of growth at 10 µM [13]?
A: Its inhibition of growth at 10 µM is 68%.

Q: And the inhibition of growth at 10 µM [14]?
A: The inhibition of growth at 10 µM was 100%.

Q: And the GI50 [15]?
A: The GI50 was 0.177 µM.

Q: What about the inhibition of growth at 10 µM [16] of the same molecule?
A: The inhibition of growth at 10 µM was 62%.

Q: And the GI50 [17]?
A: Its GI50 is 0.38 µM.

Q: What about the GI50 [18] of the same molecule?
A: Its GI50 is 0.371 µM.

Q: And the inhibition of growth at 10 µM [19]?
A: The inhibition of growth at 10 µM was 54%.

Q: And the inhibition of growth at 10 µM [20]?
A: Its inhibition of growth at 10 µM is 77%.

Q: What about the GI50 [21] of the same molecule?
A: The GI50 was 0.38 µM.

Q: And the inhibition of growth at 10 µM [22]?
A: Its inhibition of growth at 10 µM is 77%.

Q: What about the inhibition of growth at 10 µM [23] of the same molecule?
A: The inhibition of growth at 10 µM was 98%.

Q: And the GI50 [24]?
A: The GI50 was 0.418 µM.

Q: What about the GI50 [25] of the same molecule?
A: Its GI50 is 0.715 µM.

Q: And the inhibition of growth at 10 µM [26]?
A: The inhibition of growth at 10 µM was 68%.

Q: What about the GI50 [27] of the same molecule?
A: Its GI50 is 0.377 µM.

Q: And the inhibition of growth at 10 µM [28]?
A: Its inhibition of growth at 10 µM is 73%.

Q: And the inhibition of growth at 10 µM [29]?
A: The inhibition of growth at 10 µM was 91%.

Q: And the GI50 [30]?
A: The GI50 was 0.395 µM.

Q: And the inhibition of growth at 10 µM [31]?
A: The inhibition of growth at 10 µM was 77%.

Q: And the GI50 [32]?
A: The GI50 was 0.489 µM.

Q: And the inhibition of growth at 10 µM [33]?
A: Its inhibition of growth at 10 µM is 73%.

Q: And the GI50 [34]?
A: Its GI50 is 0.759 µM.

Q: What about the inhibition of growth at 10 µM [35] of the same molecule?
A: Its inhibition of growth at 10 µM is 100%.

Q: What about the GI50 [36] of the same molecule?
A: The GI50 was 0.33 µM.

Q: And the inhibition of growth at 10 µM [37]?
A: Its inhibition of growth at 10 µM is 56%.

Q: What about the GI50 [38] of the same molecule?
A: Its GI50 is 0.393 µM.

Q: And the inhibition of growth at 10 µM [39]?
A: The inhibition of growth at 10 µM was 84%.

Q: And the GI50 [40]?
A: The GI50 was 0.676 µM.

Q: And the GI50 [41]?
A: The GI50 was 0.445 µM.

Q: What about the GI50 [42] of the same molecule?
A: Its GI50 is 0.807 µM.

Q: What about the GI50 [43] of the same molecule?
A: Its GI50 is 0.531 µM.

Q: What about the inhibition of growth at 10 µM [44] of the same molecule?
A: Its inhibition of growth at 10 µM is 84%.

Q: And the GI50 [45]?
A: Its GI50 is 0.419 µM.

Q: What about the GI50 [46] of the same molecule?
A: Its GI50 is 0.764 µM.
